This is an account of results in PubChem BioAssay (NCI).

Test systems include HOP-62 NSCLC; HCT-116 colon; CAKI-1 renal; 786-0 renal; MCF7 breast; SF-268 CNS; KM12 colon; MDA-MB-435; UACC-257 melanoma; SR leukemia.
Holding throughout (test): NCI anticancer screen, dose series, 48 h

Structures are written as SMILES.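 Exposure lasted 48 hours, with cells grown in 96-well plates and compounds tested at five concentrations. At the GI50, growth is halved. TGI: concentration producing complete growth inhibition.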 Where only a bound is given, the exact number is not on record here.

`CCNCCS(=O)(=O)NC[C@@]1(c2ccccc2)SC(NC(=O)C(C)(C)C)=NN1C(=O)C(C)(C)C`: the GI50 in the assay on HOP-62 NSCLC was 0.0353 µM; in the assay with HCT-116 colon it was less than 0.01 µM; with CAKI-1 renal, 0.694 µM; in the assay on 786-0 renal, 0.341 µM; in the assay with MCF7 breast it was less than 0.01 µM; with SF-268 CNS it was less than 0.01 µM. Moreover, the GI50 with KM12 colon was less than 0.01 µM; with MDA-MB-435, less than 0.01 µM; in the assay on UACC-257 melanoma, 11.8 µM; in the assay on SR leukemia, less than 0.01 µM. Further, the TGI with HOP-62 NSCLC, with HCT-116 colon, in the assay on CAKI-1 renal, with 786-0 renal, in the assay on MCF7 breast and with SF-268 CNS was more than 100 µM each time. Also, the TGI is more than 100 µM with KM12 colon, less than 0.01 µM with MDA-MB-435, more than 76.9 µM in the assay with UACC-257 melanoma and 22.3 µM in the assay with SR leukemia.

`C/C(=N\O)C1CC(CC(=O)O)C1(C)C` (stereo not given): the TGI in the assay with HOP-62 NSCLC, in the assay with HCT-116 colon, in the assay on CAKI-1 renal, in the assay on 786-0 renal, in the assay on MCF7 breast and with SF-268 CNS was more than 100 µM in each case. Also, the TGI with KM12 colon, in the assay with MDA-MB-435, in the assay on UACC-257 melanoma and in the assay on SR leukemia was more than 100 µM in each case.

For `N#CC(Cl)CS(=O)(=O)c1ccccc1` (stereo not given), the TGI with HOP-62 NSCLC was more than 59.1 µM; with HCT-116 colon it was 12.2 µM; in the assay on CAKI-1 renal, 10.2 µM; in the assay on 786-0 renal, 30.5 µM; in the assay with MCF7 breast, 32.8 µM; in the assay with SF-268 CNS, 24.3 µM. The TGI turned out to be 33.3 µM in the assay on KM12 colon, 32.1 µM with MDA-MB-435, 14 µM in the assay on UACC-257 melanoma and 12.1 µM with SR leukemia.

For the molecule `C=C1CC[C@@](C)(c2cc(Br)c(C)cc2OC(C)=O)[C@H]1C`, the GI50 with HOP-62 NSCLC is 17.5 µM; with HCT-116 colon, 8.81 µM; in the assay on CAKI-1 renal, 14.7 µM; in the assay on 786-0 renal, 12.6 µM; with MCF7 breast it was 12.8 µM; in the assay on SF-268 CNS, 13.2 µM. The GI50 with KM12 colon was 6.38 µM; with MDA-MB-435 it was 13.3 µM; in the assay on UACC-257 melanoma, 16.1 µM; with SR leukemia it was 11.2 µM. Besides, the TGI in the assay with HOP-62 NSCLC is 31.8 µM; with HCT-116 colon it was 20.8 µM; in the assay with CAKI-1 renal it was 28.8 µM; in the assay on 786-0 renal it was 25.4 µM; with MCF7 breast, 28 µM; with SF-268 CNS, 28.3 µM. Moreover, the TGI in the assay with KM12 colon was 21.1 µM; in the assay with MDA-MB-435, 27.5 µM; in the assay with UACC-257 melanoma it was 30.2 µM; with SR leukemia, 27.1 µM.

Take `CC(C)(Oc1cccc(N2CCC[C@@H](C(=O)N(Cc3ccc(-c4cn[nH]c4)cc3)C3CC3)C2)c1)C(=O)N1CCNCC1`: the GI50 in the assay with HOP-62 NSCLC was 13.3 µM; with HCT-116 colon, 12.6 µM; in the assay with CAKI-1 renal it was 8.11 µM; with 786-0 renal, 11.7 µM; in the assay on MCF7 breast it was 11.6 µM; in the assay with SF-268 CNS, 10.7 µM. Moreover, the GI50 in the assay on KM12 colon was 14.8 µM; with MDA-MB-435, 13.8 µM; with UACC-257 melanoma, 12.2 µM; in the assay on SR leukemia, 7.87 µM. The TGI with HOP-62 NSCLC is 28.5 µM; in the assay on HCT-116 colon, 27.8 µM; in the assay on CAKI-1 renal, 21.9 µM; in the assay with 786-0 renal, 25 µM; in the assay on MCF7 breast, 25.4 µM; in the assay with SF-268 CNS, 24.7 µM. The TGI in the assay on KM12 colon came out at 28.8 µM; in the assay on MDA-MB-435 it was 27.2 µM; in the assay on UACC-257 melanoma, 25.9 µM; with SR leukemia it was 28.6 µM.

As to `Cc1[nH]c(N)nc(=S)c1CCCNc1ccccc1`, the TGI in the assay on HOP-62 NSCLC, in the assay on HCT-116 colon, with CAKI-1 renal, in the assay with 786-0 renal, with MCF7 breast and in the assay on SF-268 CNS was more than 100 µM each time. For the same molecule, the TGI was more than 100 µM in the assay with KM12 colon, more than 100 µM with MDA-MB-435, more than 100 µM in the assay with UACC-257 melanoma and 96.9 µM in the assay on SR leukemia.

In the case of `CN1C(=O)[C@@H](CC2CCCC2)N(C2CCCC2)c2nc(Nc3cc(Cl)c(O)c(Cl)c3)ncc21`, the GI50 is 27.9 µM in the assay with HOP-62 NSCLC; 13.1 µM with HCT-116 colon; 23.1 µM in the assay on CAKI-1 renal; 15.2 µM in the assay with 786-0 renal; 15.2 µM with MCF7 breast; 33 µM in the assay on SF-268 CNS. The GI50 in the assay with KM12 colon is 37.5 µM; with MDA-MB-435 it was 27.8 µM; with UACC-257 melanoma, 25.1 µM; with SR leukemia, 13 µM. Also, the TGI is more than 100 µM with HOP-62 NSCLC; 30.4 µM in the assay with HCT-116 colon; more than 100 µM in the assay on CAKI-1 renal; 47.2 µM in the assay with 786-0 renal; more than 100 µM with MCF7 breast; more than 100 µM with SF-268 CNS. In addition, the TGI is more than 100 µM in the assay on KM12 colon, more than 100 µM in the assay with MDA-MB-435, more than 100 µM in the assay on UACC-257 melanoma and 62.1 µM with SR leukemia.

For `Oc1c(Cl)cc(Cl)c(Cl)c1Cc1c(O)c(Cl)cc(Cl)c1Cl`, the GI50 in the assay on HOP-62 NSCLC was 1.37 µM; in the assay on HCT-116 colon, 0.41 µM; in the assay with CAKI-1 renal it was 0.525 µM; in the assay on 786-0 renal, 1.96 µM; in the assay with MCF7 breast, 1.34 µM; in the assay with SF-268 CNS, 1.08 µM. Also, the GI50 with KM12 colon was 0.953 µM; with MDA-MB-435, 1.93 µM; with UACC-257 melanoma, 2.06 µM; in the assay on SR leukemia, 1.19 µM. Moreover, the TGI in the assay on HOP-62 NSCLC worked out at 12.1 µM; in the assay with HCT-116 colon, 10.2 µM; with CAKI-1 renal, 7.36 µM; in the assay on 786-0 renal it was 11.8 µM; in the assay on MCF7 breast, 13.9 µM; with SF-268 CNS it was 17.5 µM. In addition, the TGI with KM12 colon was 11.5 µM; in the assay on MDA-MB-435, 12.8 µM; in the assay on UACC-257 melanoma, 9.3 µM; in the assay on SR leukemia, more than 100 µM.
